# Laboratory results reported in patent publication US20240246937A1 (MERCK SHARP & DOHME LLC, priority 2021, published 2024).
# Molecular target: recombinant IL4I1 (Homo sapiens (Human), UniProt Q96RQ9)
# Assay: IL4I1 Enzymatic Assay (Amplex Red/HRP coupled fluorescence detection of H2O2)
# Type: biochemical
# Conditions: 240 min; recombinant IL4I1, four-hour pre-incubation with compound
# Method in brief: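 Ten-point, 1:3 compound titrations were fitted by four-parameter sigmoidal regression to give EC50. Resorufin fluorescence (544/590 nm) from Amplex Red/HRP-coupled H2O2 detection was read 120 min after adding 1 mM each aromatic amino acid to 1 nM IL4I1, following a 4 h compound pre-incubation in pH 7.0 Hepes buffer.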
# Sequence of recombinant IL4I1 (Q96RQ9 22-567): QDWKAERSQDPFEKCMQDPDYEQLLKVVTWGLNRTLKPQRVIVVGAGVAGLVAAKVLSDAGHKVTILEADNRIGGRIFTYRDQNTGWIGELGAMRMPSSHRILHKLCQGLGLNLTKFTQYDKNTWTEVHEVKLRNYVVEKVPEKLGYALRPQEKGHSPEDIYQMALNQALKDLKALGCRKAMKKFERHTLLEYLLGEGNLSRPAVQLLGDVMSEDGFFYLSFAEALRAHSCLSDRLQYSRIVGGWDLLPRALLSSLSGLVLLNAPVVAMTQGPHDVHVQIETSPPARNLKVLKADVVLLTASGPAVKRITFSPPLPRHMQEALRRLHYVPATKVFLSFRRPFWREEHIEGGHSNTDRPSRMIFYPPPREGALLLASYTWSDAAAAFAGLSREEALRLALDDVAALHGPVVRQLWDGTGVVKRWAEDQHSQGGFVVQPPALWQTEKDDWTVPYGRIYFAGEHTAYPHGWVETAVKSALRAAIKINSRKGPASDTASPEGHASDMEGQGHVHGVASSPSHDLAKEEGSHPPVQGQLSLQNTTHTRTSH
row,Compound,EC50
1,"O=C1C(=O)N(C2CCC2)CCN1Cc1cnc(-c2ccccc2F)s1 [Example 78, 1-cyclobutyl-4-((2-(2-fluorophenyl)thiazol-5-yl)methyl)piperazine-2,3-dione]",6 nM
2,"O=c1c(=O)n(C23CC(F)(C2)C3)ccn1Cc1cn(-c2ccccn2)nn1 [Example 260, 1-(3-fluorobicyclo[1.1.1]pentan-1-yl)-4-((1-(pyridin-2-yl)-1H-1,2,3-triazol-4-yl)methyl)-1,4-dihydropyrazine-2,3-dione]",38 nM
3,"O=C1C(=O)N(C23CC(C2)C3)CCN1Cc1ccc(-c2ccccc2)nc1 [Example 122, 1-(bicyclo[1.1.1]pentan-1-yl)-4-((6-phenylpyridin-3-yl)methyl)piperazine-2,3-dione]",6 nM
4,"O=c1c(=O)n(C2(CF)CC2)ccn1Cc1ccc(-c2cncs2)nn1 [Example 245, 1-(1-(fluoromethyl)cyclopropyl)-4-((6-(thiazol-5-yl)pyridazin-3-yl)methyl)-1,4-dihydropyrazine-2,3-dione]",43 nM
5,"N#CC1(n2ccn(Cc3ccc(-c4cccnc4)nn3)c(=O)c2=O)CC1 [Example 89, 1-(2,3-dioxo-4-((6-(pyridin-3-yl)pyridazin-3-yl)methyl)-3,4-dihydropyrazin-1(2H)-yl)cyclopropane-1-carbonitrile]",32 nM
6,"O=C1C(=O)N(C2CCCC2)CCN1Cc1cnn(-c2ccccc2)c1 [Example 273, 1-cyclopentyl-4-((1-phenyl-1H-pyrazol-4-yl)methyl)piperazine-2,3-dione]",19 nM
7,"O=c1c(=O)n(C2CCC2)ccn1Cc1cnc(-c2ccccc2F)cn1 [Example 74, 1-cyclobutyl-4-((5-(2-fluorophenyl)pyrazin-2-yl)methyl)-1,4-dihydropyrazine-2,3-dione]",5 nM
8,"O=c1c(=O)n(C2CCC2)ccn1Cc1ccc(-c2cccc(F)c2F)nn1 [Example 71, 1-cyclobutyl-4-((6-(2,3-difluorophenyl)pyridazin-3-yl)methyl)-1,4-dihydropyrazine-2,3-dione]",6 nM
9,"CC1(n2ccn(Cc3ccc(-n4ccnn4)nc3)c(=O)c2=O)CC1 [Example 414, 1-((6-(1H-1,2,3-triazol-1-yl)pyridin-3-yl)methyl)-4-(1-methylcyclopropyl)-1,4-dihydropyrazine-2,3-dione]",15 nM
10,"O=C1C(=O)N([C@H]2C[C@H](c3ccccc3)C2)CCN1Cc1ccc(-c2ccccc2)nc1 [Example 266B, trans-1-(3-phenylcyclobutyl)-4-((6-phenylpyridin-3-yl)methyl)piperazine-2,3-dione]",4 nM
11,"O=C1C(=O)N([C@H]2C[C@H]3C[C@H]3C2)CCN1Cc1cnc(-c2ccccc2)c(F)c1 [Example 131, 1-((cis)-bicyclo[3.1.0]hexan-3-yl)-4-((5-fluoro-6-phenylpyridin-3-yl)methyl)piperazine-2,3-dione]",9 nM
12,"O=c1c(=O)n(C23CC(C2)C3)ccn1Cc1ccc(-n2nccn2)nn1 [Example 403, 1-((6-(2H-1,2,3-triazol-2-yl)pyridazin-3-yl)methyl)-4-(bicyclo[1.1.1]pentan-1-yl)-1,4-dihydropyrazine-2,3-dione]",17 nM
13,"O=c1c(=O)n(C2(CF)CC2)ccn1Cc1cn(-c2ccccn2)nn1 [Example 257, 1-(1-(fluoromethyl)cyclopropyl)-4-((1-(pyridin-2-yl)-1H-1,2,3-triazol-4-yl)methyl)-1,4-dihydropyrazine-2,3-dione]",68 nM
14,"O=C1C(=O)N(C23CC(F)(C2)C3)CCN1Cc1ccc(-n2cccn2)cn1 [Example 250, 1-((5-(1H-pyrazol-1-yl)pyridin-2-yl)methyl)-4-(3-fluorobicyclo[1.1.1]pentan-1-yl)piperazine-2,3-dione]",240 nM
15,"N#CC1(N2CCN(Cc3nnc(-c4ccccc4)s3)C(=O)C2=O)CC1 [Example 308, 1-(2,3-dioxo-4-((5-phenyl-1,3,4-thiadiazol-2-yl)methyl)piperazin-1-yl)cyclopropane-1-carbonitrile]",35 nM
16,"O=C1C(=O)N(C2CCC2)CCN1Cc1cn(-c2ccccc2)cn1 [Example 174, 1-cyclobutyl-4-((1-phenyl-1H-imidazol-4-yl)methyl)piperazine-2,3-dione]",39 nM
17,"O=c1c(=O)n(C23CC(C2)C3)ccn1Cc1nnc(-c2ccccc2)s1 [Example 120, 1-(bicyclo[1.1.1]pentan-1-yl)-4-((5-phenyl-1,3,4-thiadiazol-2-yl)methyl)-1,4-dihydropyrazine-2,3-dione]",3 nM
18,"N#CC1(n2ccn(Cc3cc(-c4ccccn4)no3)c(=O)c2=O)CC1 [Example 200, 1-(2,3-dioxo-4-((3-(pyridin-2-yl)isoxazol-5-yl)methyl)-3,4-dihydropyrazin-1(2H)-yl)cyclopropane-1-carbonitrile]",68 nM
19,"CC(c1cnn(-c2ccccc2)c1)N1CCN(C2CCCC2)C(=O)C1=O (stereo not drawn) [Example 347, 1-cyclopentyl-4-(1-(1-phenyl-1H-pyrazol-4-yl)ethyl)piperazine-2,3-dione]",74 nM
20,"O=c1c(=O)n(C23CC(C2)C3)ccn1Cc1ccc(-n2ccnn2)cn1 [Example 388, 1-((5-(1H-1,2,3-triazol-1-yl)pyridin-2-yl)methyl)-4-(bicyclo[1.1.1]pentan-1-yl)-1,4-dihydropyrazine-2,3-dione]",23 nM

row,Compound,EC50
1,"CC1CCC1N1CCN(Cc2ncc(-c3ccccc3)cn2)C(=O)C1=O (stereo not drawn) [Example 282, 1-(2-methylcyclobutyl)-4-((5-phenylpyrimidin-2-yl)methyl)piperazine-2,3-dione]",30 nM
2,"O=C1C(=O)N(C2CC3CC3C2)CCN1Cc1nnc(-c2ccc(F)cc2)s1 (stereo not drawn) [Example 40, 1-((cis)-bicyclo[3.1.0]hexan-3-yl)-4-((5-(4-fluorophenyl)-1,3,4-thiadiazol-2-yl)methyl)piperazine-2,3-dione]",4 nM
3,"CCCOc1ccc(CN2CCN(C3CCCC3)C(=O)C2=O)nn1 [Example 339, 1-cyclopentyl-4-((6-propoxypyridazin-3-yl)methyl)piperazine-2,3-dione]",42 nM
4,"O=C1C(=O)N(C23CC(C2)C3)CCN1Cc1ncc(-n2nccn2)cc1F [Example 405, 1-(bicyclo[1.1.1]pentan-1-yl)-4-((3-fluoro-5-(2H-1,2,3-triazol-2-yl)pyridin-2-yl)methyl)piperazine-2,3-dione]",23 nM
5,"CC(C)(c1cccnc1)N1CCN(Cc2nnc(-c3ccccc3)s2)C(=O)C1=O [Example 300, 1-((5-phenyl-1,3,4-thiadiazol-2-yl)methyl)-4-(2-(pyridin-3-yl)propan-2-yl)piperazine-2,3-dione]",86 nM
6,"O=C1C(=O)N(C2CCCC2)CCN1Cc1cc(-c2cccc(F)c2)no1 [Example 153, 1-cyclopentyl-4-((3-(3-fluorophenyl)isoxazol-5-yl)methyl)piperazine-2,3-dione]",3 nM
7,"O=C1C(=O)N(C2CCC2)CCN1Cc1ccc(-c2nccs2)nn1 [Example 365, 1-cyclobutyl-4-((6-(thiazol-2-yl)pyridazin-3-yl)methyl)piperazine-2,3-dione]",17 nM
8,"O=c1c(=O)n(C2CCCC2)ccn1Cc1cnc(-c2ccccc2)cn1 [Example 126, 1-cyclopentyl-4-((5-phenylpyrazin-2-yl)methyl)-1,4-dihydropyrazine-2,3-dione]",3 nM
9,"O=C1C(=O)N(C2CCC2)CCN1Cc1cnc(-c2ccccc2)cn1 [Example 118, 1-cyclobutyl-4-((5-phenylpyrazin-2-yl)methyl)piperazine-2,3-dione]",7 nM
10,"CC1(n2ccn(Cc3ccc(-n4ccnn4)cn3)c(=O)c2=O)CC1 [Example 385, 1-((5-(1H-1,2,3-triazol-1-yl)pyridin-2-yl)methyl)-4-(1-methylcyclopropyl)-1,4-dihydropyrazine-2,3-dione]",42 nM
11,"O=C1C(=O)N(C2CCCC2)CCN1Cc1ccc(-c2cnco2)nc1 [Example 18, 1-cyclopentyl-4-((6-(oxazol-5-yl)pyridin-3-yl)methyl)piperazine-2,3-dione]",41 nM
12,"O=C1C(=O)N(C2CCC2)CCN1Cc1cc(-c2ccccn2)on1 [Example 138, 1-cyclobutyl-4-((5-(pyridin-2-yl)isoxazol-3-yl)methyl)piperazine-2,3-dione]",12 nM
13,"CC1(N2CCN(Cc3cc(-c4ccccc4)on3)C(=O)C2=O)CCC1 [Example 167, 1-(1-methylcyclobutyl)-4-((5-phenylisoxazol-3-yl)methyl)piperazine-2,3-dione]",9 nM
14,"O=c1c(=O)n(C23CC(C2)C3)ccn1Cc1ccc(-c2ccccc2)cn1 [Example 115, 1-(bicyclo[1.1.1]pentan-1-yl)-4-((5-phenylpyridin-2-yl)methyl)-1,4-dihydropyrazine-2,3-dione]",4 nM
15,"O=C1C(=O)N(C2CCCC2)CCN1Cc1ncc(-c2ccccn2)cn1 [Example 342, 1-cyclopentyl-4-((5-(pyridin-2-yl)pyrimidin-2-yl)methyl)piperazine-2,3-dione]",69 nM
16,"O=c1c(=O)n(C23CC(C2)C3)ccn1Cc1ccc(-n2cccn2)nc1 [Example 384, 1-((6-(1H-pyrazol-1-yl)pyridin-3-yl)methyl)-4-(bicyclo[1.1.1]pentan-1-yl)-1,4-dihydropyrazine-2,3-dione]",9 nM
17,"O=c1c(=O)n(C23CC(F)(C2)C3)ccn1Cc1ccc(-c2ccccn2)nn1 [Example 214, 1-(3-fluorobicyclo[1.1.1]pentan-1-yl)-4-((6-(pyridin-2-yl)pyridazin-3-yl)methyl)-1,4-dihydropyrazine-2,3-dione]",56 nM
18,"O=c1c(=O)n(C23CC(C2)C3)ccn1Cc1ccc(-n2cccn2)cn1 [Example 382, 1-((5-(1H-pyrazol-1-yl)pyridin-2-yl)methyl)-4-(bicyclo[1.1.1]pentan-1-yl)-1,4-dihydropyrazine-2,3-dione]",25 nM
19,"O=C1C(=O)N(C2(CF)CC2)CCN1Cc1nnc(-c2ccccc2)s1 [Example 305, 1-(1-(fluoromethyl)cyclopropyl)-4-((5-phenyl-1,3,4-thiadiazol-2-yl)methyl)piperazine-2,3-dione]",32 nM
